# Laboratory results: patent publication US20190125753A1, “COMPOUNDS AND METHODS FOR INCREASING HEMATOPOIESIS” (University of Southern California, priority 2016, published 2019)
# What was measured:
# Wnt/β-catenin pathway = assay: SuperTOPFLASH (STF1.1 Hek-293) Wnt/β-catenin-driven luciferase reporter; type: cell-based; details: Homo sapiens, HEK293; STF1.1 Hek-293; 1 hour pre-incubation, 10 mM LiCl 24 hours
# Protocol: A. Wnt/β-Catenin Activity: The Initial SuperTOPFLASH Screen.
# Hek293 cells were stably transfected with plasmid that contains multiple TCF/LEF fragments in front of Luciferase gene. Wnt/β-catenin activity was determined from luciferase expression levels. […] Briefly, stably transfected Hek-293, STFI.1 (Wnt/β-catenin-driven luciferase) and Survivin-Hek-293 (1 Kb Human survivin promoter-driven luciferase) cells were maintained in DMEM, 10% FBS, Pen/Strep with 400 μg/mL G418 or 2 μg/mL puromycin, respectively. To check the activity of ICG-001, YH249, and YH250, the cells were split into white-opaque 96-well plates at 10,000 cells per well and allowed to attach overnight. For SuperTOPLASH, the inhibitors were added to the cells and pre-incubated for 1 hour prior to stimulation with 10 mM Li Cl for 24 hours. Luciferase activity was read using BrightGlo (Promnega) luciferase substrate. For survivin/luc, the inhibitors were added to the cells and incubated for 24 hours prior to readout. To calculate IC5o values, the resulting curve was fitted to a four-parameter logistic model (4PL) using GraphPad Prism 5 software.
# An endogenous human survivin 1 kb promoter was inserted before a luciferase gene. […] R1 and R2 were diversified in this study. Percent inhibition of luciferase activity was calculated according to the following equations; % inhibition of STF 1.1 reporter activity=(I−RLU(10 mM LiCl) treated/RLU(10 omM LiCl) vehicle×control)100, % inhibition of Survivin reporter activity=(1−RLUtreated/RLU vehicle control)×100. Error bars indicate the mean±SE of 3 separate experiments. Selectivity (FIG. 2H) was calculated by IC50 value for Survivin-Hek-293/IC50 value for STF 1.1.
# [1] = system: LSK150+41−48− cells (LTR-HSC); assay: RNA sequencing of long-term repopulating HSC from treated mice; type: in vivo, mouse; details: 2 mg/kg vs DMSO, 16 hours
# Protocol: DMSO or YH250 (2 mg/kg) were administrated to female C57/Black mice.
# [2] = system: long-term repopulating HSC; assay: HSC differentiation assay (LTR-HSC from treated mice co-cultured with GFP bone marrow cells); type: in vivo, mouse; details: 2 mg/kg, 24 hours, then 2.5-3 days co-culture
# Protocol: DMSO or YH250 (2 mg/kg) were administrated to female C57/BL mice. (Mice were purchased from JAX stock#000664 for CD45.2 or Stock#002014 for CD45.1). 24 hours later, long-term repopulating HSC (LTR-HSC, Lin-negt/Sca-1-posit/c-kit-posit/CD34negt/CD135negt/CD48negt/CD150posit cells were purified with fluorescent flow cytometry sorting (FACS). Then, the purified cells were co-cultured with whole bone marrow cells isolated from GFP-transgenic mice (C57BL/6Tg-UBC-GFP, JAX stock#004353), which serves as supporting system in stem cell medium (Stemspan, Stemcell Technologies, Cat#9650) supplemented with SCF (stem cell factor 10 ng/ml) and TPO (thrombopoietin, 10 ng/ml). 2.5-3 days after co-culture, cells were harvested and analyzed for surface markers of CD48 and CD202b (Tie-2) (FIG. 7A).
# R1 mESCs = assay: Maintenance of mouse ES cell pluripotency, feeder free, 5 days; type: cell-based
# Protocol: (§1) We also determined that IQ-1 indirectly, via binding to the PR72/130 subunit of PP2A, inhibited the p300/β-catenin interaction (Id). Therefore, we anticipated that YH249/250 should also maintain mESC pluripotency in a Wnt dependent manner. To test his, R1 mESCs were cultured under feeder free conditions in the presence or absence of YH249/250 for 5 days. […] Pluripotency markers, Oct4, Nanog, Sox2, SSEA-1 and ALP, were all expressed in the cells treated with Wnt3a and YH250 (FIG. 28b). Moreover, Wnt3a could be replaced with the selective GSK-3 inhibitor CHIR99021, which activates the Wnt signaling pathway (FIG. 28a, lower panel). […] In the event, similarly to ID-8, the combination of Wnt3a and YH249/250 provided morphologically undifferentiated colonies of H9 human embryonic stem cells (hESCs) without FGF and TGF (FIG. 28c). hPSC markers were detected by ALP staining and immunofluorescence (FIG. 28d). In addition to H9 cells, two other hESC lines and a human induced pluripotent stem (iPS) cell line could be also maintained undifferentiated morphology utilizing the same conditions (not shown).
# Specifically, FIG. 28A-28D, show maintenance of ESC's pluripotency by YH249 and YH250. […] 28A, Typical colony morphologies of RI mouse ES cells cultured 5 days in [upper panel] 3 μM CHIR99021 and 1 μM PD0325901 (2i) medium, basal medium (2i medium without CHIR99021 and PD0325901), basal medium supplemented with 50 ng/ml Wnt3a alone, [middle panel] combination of 50 ng/ml Wnt3a and 2 μM IQ-1, 500 nM YH249 or 200 nM YH250, [lower panel] 3 μM of CHIR99021 alone, and combination of 3 μM CHIR99021 and 500 nM YH249 or 200 nM YH250. […] The blue signal (Wnt3a panels) represents DAPI nuclear staining. Bars indicate […]. […] The blue signal (Wnt3a panels) represents DAP1 nuclear staining. Scale bars indicate 100 am.
# [3] = system: H9 human embryonic stem cells; assay: Maintenance of human ES cell pluripotency, 5 days; type: cell-based; details: 25 ng/ml Wnt3a; 500 nM YH249 or 200 nM YH250, 5 days, without FGF and TGF
# Protocol: as §1
# Specifically, FIG. 28A-28D, show maintenance of ESC's pluripotency by YH249 and YH250. […] 28A, Typical colony morphologies of RI mouse ES cells cultured 5 days in [upper panel] […]
smiles,measurement,setting,value
COc1cccc(CNC(=O)N2C3CN(Cc4cc(Cl)cc(Cl)c4N(C)C)C(=O)[C@H](Cc4ccc(O)cc4)N3C(=O)CN2C)c1OC (stereo partly shown) [YH250],IC50,Wnt/β-catenin pathway,< 100 nM
same,Fold-Change A430005L14Rik,[1],2.07 fold
same,Fold-Change Car1,[1],46.29 fold
same,Fold-Change Casp6,[1],2.56 fold
same,Fold-Change Cd52,[1],3.09 fold
same,Fold-Change Cd53,[1],2.79 fold
same,Fold-Change Cd69,[1],2.44 fold
same,Fold-Change Cd74,[1],2.30 fold
same,Fold-Change Cd79a,[1],5.49 fold
same,Fold-Change Cdc123,[1],2.13 fold
same,Fold-Change Dtx3,[1],−2.12 fold
same,Fold-Change Gm21897,[1],−2.18 fold
same,Fold-Change Gm26377 (miRNA),[1],−58.02 fold
same,Fold-Change Ighm,[1],6.14 fold
same,Fold-Change Ighv11-2,[1],8.18 fold
same,Fold-Change Igj,[1],3.36 fold
same,Fold-Change Igkc,[1],3.93 fold
same,Fold-Change Igkv14-126,[1],8.00 fold
same,Fold-Change Igkv19-93,[1],21.16 fold
same,Fold-Change Iglc2,[1],4.58 fold
same,Fold-Change Il2rg,[1],2.03 fold
same,Fold-Change Kcnq1ot1 (antisense),[1],−2.37 fold
same,Fold-Change Ldlr,[1],−3.57 fold
same,Fold-Change Ly6c2,[1],7.17 fold
same,Fold-Change Mid1,[1],−3.98 fold
same,Fold-Change Mrpl30,[1],2.07 fold
same,Fold-Change Ndufaf7,[1],3.45 fold
same,Fold-Change Pias1,[1],2.02 fold
same,Fold-Change Psmf1,[1],2.48 fold
same,Fold-Change RP23-99K18.3 (lincRNA),[1],−2.28 fold
same,Fold-Change Tgtp1,[1],2.85 fold
same,Fold-Change Tmed4,[1],2.06 fold
same,CD48posit cells vs DMSO,[2]; p=0.010,significantly less
same,non-differentiated CD48negt/CD202bposit cells vs DMSO,[2]; p=0.04,significantly more
same,"pluripotency markers Oct4, Nanog, Sox2, SSEA-1 and ALP",R1 mESCs; Wnt3a and 200 nM YH250,all expressed
same,mESC pluripotency,"R1 mESCs; with 50 ng/ml Wnt3a or 3 μM CHIR99021, 500 nM YH249 or 200 nM YH250, 5 days",maintain pluripotency
same,hESC pluripotency,[3],maintain pluripotency
